Read-outs that look alike come from different tables or passages of the source.
Legend:
[1] = tested on: Key Broadleaf Weed and Crop Species; assay: Post-Emergent Test II: postemergent herbicidal activity, visual rating after 14 d (Table 7); type: in vivo; conditions: post-emergence, 336 h; for pest or weed control at 35 g/ha: 35 g ai/ha; for pest or weed control at 70 g/ha: 70 g ai/ha; for pest or weed control at 140 g/ha: 140 g ai/ha
How it was run: (§1)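 Plants were raised in a greenhouse for 7-21 d and treated once at the first or second true leaf stage. Compounds, dissolved in 97:3 acetone:DMSO then diluted into an aqueous acetone/isopropanol/crop oil/Triton X-155 carrier, were applied by overhead track sprayer at 187 L/ha. After 14 d with subirrigation, injury was scored visually from 0 (none) to 100 (complete kill).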

[2] = tested on: Key Grass and Sedge Weeds as well as Grass Crops; assay: Post-Emergent Test II: postemergent herbicidal activity, visual rating after 14 d (Table 8); type: in vivo; conditions: post-emergence, 336 h; for pest or weed control at 35 g/ha: 35 g ai/ha; for pest or weed control at 70 g/ha: 70 g ai/ha; for pest or weed control at 140 g/ha: 140 g ai/ha
How it was run: as §1

[3] = lambsquarters (Chenopodium album), read-out: Visual Growth Reduction (%) 14 Days After Application CHEAL
[4] = oilseed rape, canola (Brassica napus), read-out: Visual Growth Reduction (%) 14 Days After Application BRSNN
[5] = redroot pigweed (Amaranthus retroflexus), read-out: Visual Growth Reduction (%) 14 Days After Application AMARE
[6] = sunflower (Helianthus annuus), read-out: Visual Growth Reduction (%) 14 Days After Application HELAN
[7] = velvetleaf (Abutilon theophrasti), read-out: Visual Growth Reduction (%) 14 Days After Application ABUTH
[8] = wild poinsettia (Euphorbia heterophylla), read-out: Visual Growth Reduction (%) 14 Days After Application EPHHL
[9] = barnyardgrass (Echinochloa crus-galli), read-out: Visual Growth Reduction (%) 14 Days After Application ECHCG
[10] = giant foxtail (Setaria faberi), read-out: Visual Growth Reduction (%) 14 Days After Application SETFA
[11] = maize, corn (Zea mays), read-out: Visual Growth Reduction (%) 14 Days After Application ZEAMX
[12] = rice (Oryza sativa), read-out: Visual Growth Reduction (%) 14 Days After Application ORYSA
[13] = wheat, spring (Triticum aestivum), read-out: Visual Growth Reduction (%) 14 Days After Application TRZAS
[14] = yellow nutsedge (Cyperus esculentus), read-out: Visual Growth Reduction (%) 14 Days After Application CYPES

## COC(=O)c1nc(-c2ccc3c(c2C)OC(F)(F)O3)cc(N)c1Cl [Compound 35]
[1]; [3]
  pest or weed control at 35 g/ha: 0 to 29%
  pest or weed control at 70 g/ha: 60 to 74%
  pest or weed control at 140 g/ha: 85 to 94%
[1]; [4]
  pest or weed control at 35 g/ha: 30 to 44%
  pest or weed control at 70 g/ha: 45 to 59%
  pest or weed control at 140 g/ha: 60 to 74%
[1]; [5]
  pest or weed control at 35 g/ha: 85 to 94%
  pest or weed control at 70 g/ha: 95 to 100%
  pest or weed control at 140 g/ha: 95 to 100%
[1]; [6]
  pest or weed control at 35 g/ha: 60 to 74%
  pest or weed control at 70 g/ha: 85 to 94%
  pest or weed control at 140 g/ha: 95 to 100%
[1]; [7]
  pest or weed control at 35 g/ha: 0 to 29%
  pest or weed control at 70 g/ha: 75 to 84%
  pest or weed control at 140 g/ha: 75 to 84%
[1]; [8]
  pest or weed control at 35 g/ha: 0 to 29%
  pest or weed control at 70 g/ha: 0 to 29%
  pest or weed control at 140 g/ha: 0 to 29%
[2]; [9]
  pest or weed control at 35 g/ha: 0 to 29%
  pest or weed control at 70 g/ha: 0 to 29%
  pest or weed control at 140 g/ha: 0 to 29%
[2]; [10]
  pest or weed control at 35 g/ha: 0 to 29%
  pest or weed control at 70 g/ha: 0 to 29%
  pest or weed control at 140 g/ha: 0 to 29%
[2]; [11]
  pest or weed control at 35 g/ha: 0 to 29%
  pest or weed control at 70 g/ha: 0 to 29%
  pest or weed control at 140 g/ha: 30 to 44%
[2]; [12]
  pest or weed control at 35 g/ha: 0 to 29%
  pest or weed control at 70 g/ha: 0 to 29%
  pest or weed control at 140 g/ha: 0 to 29%
[2]; [13]
  pest or weed control at 35 g/ha: 0 to 29%
  pest or weed control at 70 g/ha: 0 to 29%
  pest or weed control at 140 g/ha: 0 to 29%
[2]; [14]
  pest or weed control at 35 g/ha: 0 to 29%
  pest or weed control at 70 g/ha: 30 to 44%
  pest or weed control at 140 g/ha: 95 to 100%

## COC(=O)c1nc(-c2ccc3c(c2F)OC(F)(F)O3)cc(N)c1Cl [Compound 37, Methyl 4-amino-3-chloro-6-(2,2,4-trifluorobenzo-[d][1,3]dioxol-5-yl)picolinate]
[1]; [3]
  pest or weed control at 35 g/ha: 95 to 100%
  pest or weed control at 70 g/ha: 95 to 100%
  pest or weed control at 140 g/ha: 95 to 100%
[1]; [4]
  pest or weed control at 35 g/ha: 85 to 94%
  pest or weed control at 70 g/ha: 95 to 100%
  pest or weed control at 140 g/ha: 95 to 100%
[1]; [5]
  pest or weed control at 35 g/ha: 85 to 94%
  pest or weed control at 70 g/ha: 95 to 100%
  pest or weed control at 140 g/ha: 95 to 100%
[1]; [6]
  pest or weed control at 35 g/ha: 0 to 29%
  pest or weed control at 70 g/ha: 30 to 44%
  pest or weed control at 140 g/ha: 75 to 84%
[1]; [7]
  pest or weed control at 35 g/ha: 95 to 100%
  pest or weed control at 70 g/ha: 95 to 100%
  pest or weed control at 140 g/ha: 95 to 100%
[1]; [8]
  pest or weed control at 35 g/ha: 95 to 100%
  pest or weed control at 70 g/ha: 95 to 100%
  pest or weed control at 140 g/ha: 95 to 100%
[2]; [9]
  pest or weed control at 35 g/ha: 95 to 100%
  pest or weed control at 70 g/ha: 95 to 100%
  pest or weed control at 140 g/ha: 95 to 100%
[2]; [10]
  pest or weed control at 35 g/ha: 60 to 74%
  pest or weed control at 70 g/ha: 95 to 100%
  pest or weed control at 140 g/ha: 95 to 100%
[2]; [11]
  pest or weed control at 35 g/ha: 60 to 74%
  pest or weed control at 70 g/ha: 75 to 84%
  pest or weed control at 140 g/ha: 85 to 94%
[2]; [12]
  pest or weed control at 35 g/ha: 0 to 29%
  pest or weed control at 70 g/ha: 0 to 29%
  pest or weed control at 140 g/ha: 0 to 29%
[2]; [13]
  pest or weed control at 35 g/ha: 0 to 29%
  pest or weed control at 70 g/ha: 0 to 29%
  pest or weed control at 140 g/ha: 0 to 29%
[2]; [14]
  pest or weed control at 35 g/ha: 95 to 100%
  pest or weed control at 70 g/ha: 95 to 100%
  pest or weed control at 140 g/ha: 95 to 100%

Source: US9149038B2, “4-amino-6-(heterocyclic)picolinates and 6-amino-2-(heterocyclic)pyrimidine-4-carboxylates and their use as herbicides” (Dow AgroSciences LLC, priority 2013, dated 2015)
